Source: patent publication US8415469B2, “Compounds and methods for kinase modulation, and indications therefor” (Plexxikon Inc., priority 2005, dated 2013)

Assays:
Type in all cases: biochemical
Akt3 = Akt3 (Homo sapiens, UniProt Q9Y243); test: AlphaScreen kinase assay, Akt3; settings: read-out: IC50, activity toward kinase Akt3
How it was run: (§1)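 AlphaScreen read-out: acceptor-bead emission falls when kinase is inhibited. Biotin-peptide substrate captured on streptavidin donor beads, phospho-specific antibody on acceptor beads. 8 concentrations, 1:3 dilution series, from 20 mM DMSO stocks.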

ROCK1 = ROCK1 (Homo sapiens, UniProt Q13464); test: AlphaScreen kinase assay, ROCK1; settings: read-out: IC50, activity toward kinase ROCK1
Excerpt: (§2) AlphaScreen assay was used to screen additional kinases. The assay is similarly dependent on the phosphorylation of a peptide substrate. In this assay, an antibody that recognizes phosphorylated substrate is bound to an acceptor bead. The peptide substrate is attached to biotin, which binds to a donor head that contains streptavidin. Thus phosphorylated substrate is bound by antibody and streptavidin, bringing the donor and acceptor heads into close proximity when kinase is not inhibited. The donor produces singlet oxygen which results in emission from the acceptor when they are in close proximity. Conversely, when kinase is inhibited, the donor and acceptor beads are not associated and the emission from the acceptor is reduced.
(§3) AlphaScreen assays were done using compounds dissolved in DMSO to a concentration of 20 mM. The compounds were diluted accordingly to the desired final concentrations in each sample well, using 1:3 serial dilution for a total of 8 concentration points.

MAP4K4 = MAP4K4 (Homo sapiens, UniProt O95819); test: AlphaScreen kinase assay, MAP4K4; settings: read-out: IC50, activity toward kinase MAP4K4
Chain of MAP4K4 (O95819 whole entry): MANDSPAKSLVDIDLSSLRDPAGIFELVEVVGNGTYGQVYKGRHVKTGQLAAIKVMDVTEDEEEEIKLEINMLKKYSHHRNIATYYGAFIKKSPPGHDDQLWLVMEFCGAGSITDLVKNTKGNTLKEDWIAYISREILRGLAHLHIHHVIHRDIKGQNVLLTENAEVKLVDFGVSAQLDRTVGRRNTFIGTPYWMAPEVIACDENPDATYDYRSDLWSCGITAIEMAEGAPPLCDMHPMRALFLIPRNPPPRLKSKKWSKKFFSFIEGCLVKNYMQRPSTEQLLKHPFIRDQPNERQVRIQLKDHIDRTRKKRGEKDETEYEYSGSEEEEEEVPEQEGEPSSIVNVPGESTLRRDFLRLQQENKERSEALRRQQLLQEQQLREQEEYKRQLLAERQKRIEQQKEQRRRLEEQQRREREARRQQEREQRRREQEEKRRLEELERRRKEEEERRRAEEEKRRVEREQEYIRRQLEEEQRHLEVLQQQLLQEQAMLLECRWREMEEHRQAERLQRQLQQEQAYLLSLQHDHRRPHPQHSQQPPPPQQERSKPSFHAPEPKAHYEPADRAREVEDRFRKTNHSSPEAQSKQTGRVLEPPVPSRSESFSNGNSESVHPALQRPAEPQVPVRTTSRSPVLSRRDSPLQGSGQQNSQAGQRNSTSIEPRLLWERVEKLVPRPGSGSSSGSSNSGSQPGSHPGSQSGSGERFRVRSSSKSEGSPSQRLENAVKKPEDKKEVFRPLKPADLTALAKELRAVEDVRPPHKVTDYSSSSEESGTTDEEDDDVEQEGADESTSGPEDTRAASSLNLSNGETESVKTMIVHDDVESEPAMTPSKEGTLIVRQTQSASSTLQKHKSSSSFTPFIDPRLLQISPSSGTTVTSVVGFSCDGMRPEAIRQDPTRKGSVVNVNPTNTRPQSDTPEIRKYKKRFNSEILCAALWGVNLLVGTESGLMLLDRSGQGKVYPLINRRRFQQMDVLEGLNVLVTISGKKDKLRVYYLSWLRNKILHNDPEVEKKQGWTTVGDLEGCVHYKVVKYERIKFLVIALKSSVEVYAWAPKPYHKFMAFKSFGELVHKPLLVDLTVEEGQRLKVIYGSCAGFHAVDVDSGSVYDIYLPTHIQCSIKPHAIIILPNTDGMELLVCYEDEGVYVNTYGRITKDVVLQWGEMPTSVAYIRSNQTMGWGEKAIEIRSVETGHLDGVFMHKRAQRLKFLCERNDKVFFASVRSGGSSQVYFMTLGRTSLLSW

IKK beta = biological target: T1, IKK beta (Homo sapiens, UniProt O14920); test: AlphaScreen kinase assay, IKK beta; settings: read-out: IC50, activity toward kinase IKK beta
T1 sequence (O14920 1-756): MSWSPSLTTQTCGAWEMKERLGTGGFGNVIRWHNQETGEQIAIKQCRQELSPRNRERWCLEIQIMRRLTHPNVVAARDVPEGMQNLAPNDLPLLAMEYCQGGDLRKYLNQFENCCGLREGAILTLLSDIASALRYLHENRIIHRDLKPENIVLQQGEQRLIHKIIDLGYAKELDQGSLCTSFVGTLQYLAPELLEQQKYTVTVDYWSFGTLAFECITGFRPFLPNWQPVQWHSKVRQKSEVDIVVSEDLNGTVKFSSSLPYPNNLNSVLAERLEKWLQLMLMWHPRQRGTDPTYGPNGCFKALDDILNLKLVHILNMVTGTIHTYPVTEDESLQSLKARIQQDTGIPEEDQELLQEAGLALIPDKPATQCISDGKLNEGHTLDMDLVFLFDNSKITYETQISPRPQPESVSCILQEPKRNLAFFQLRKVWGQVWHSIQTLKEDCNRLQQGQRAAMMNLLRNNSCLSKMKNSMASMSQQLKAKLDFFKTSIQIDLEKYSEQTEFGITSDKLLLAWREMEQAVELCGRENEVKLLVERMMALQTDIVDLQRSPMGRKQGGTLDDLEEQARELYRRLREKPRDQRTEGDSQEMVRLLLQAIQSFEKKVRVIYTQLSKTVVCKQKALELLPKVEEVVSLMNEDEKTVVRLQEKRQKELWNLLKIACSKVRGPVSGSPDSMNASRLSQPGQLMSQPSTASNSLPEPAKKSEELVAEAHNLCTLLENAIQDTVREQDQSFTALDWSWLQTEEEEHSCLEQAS

Kdr = biological target: T2, Kdr (Homo sapiens, UniProt P35968); test: Z'-Lyte FRET kinase assay (Invitrogen), Kdr; settings: read-out: IC50, activity toward kinase Kdr
T2 construct: purchased Invitrogen (assay run by Invitrogen)
T2 sequence (P35968 20-1356): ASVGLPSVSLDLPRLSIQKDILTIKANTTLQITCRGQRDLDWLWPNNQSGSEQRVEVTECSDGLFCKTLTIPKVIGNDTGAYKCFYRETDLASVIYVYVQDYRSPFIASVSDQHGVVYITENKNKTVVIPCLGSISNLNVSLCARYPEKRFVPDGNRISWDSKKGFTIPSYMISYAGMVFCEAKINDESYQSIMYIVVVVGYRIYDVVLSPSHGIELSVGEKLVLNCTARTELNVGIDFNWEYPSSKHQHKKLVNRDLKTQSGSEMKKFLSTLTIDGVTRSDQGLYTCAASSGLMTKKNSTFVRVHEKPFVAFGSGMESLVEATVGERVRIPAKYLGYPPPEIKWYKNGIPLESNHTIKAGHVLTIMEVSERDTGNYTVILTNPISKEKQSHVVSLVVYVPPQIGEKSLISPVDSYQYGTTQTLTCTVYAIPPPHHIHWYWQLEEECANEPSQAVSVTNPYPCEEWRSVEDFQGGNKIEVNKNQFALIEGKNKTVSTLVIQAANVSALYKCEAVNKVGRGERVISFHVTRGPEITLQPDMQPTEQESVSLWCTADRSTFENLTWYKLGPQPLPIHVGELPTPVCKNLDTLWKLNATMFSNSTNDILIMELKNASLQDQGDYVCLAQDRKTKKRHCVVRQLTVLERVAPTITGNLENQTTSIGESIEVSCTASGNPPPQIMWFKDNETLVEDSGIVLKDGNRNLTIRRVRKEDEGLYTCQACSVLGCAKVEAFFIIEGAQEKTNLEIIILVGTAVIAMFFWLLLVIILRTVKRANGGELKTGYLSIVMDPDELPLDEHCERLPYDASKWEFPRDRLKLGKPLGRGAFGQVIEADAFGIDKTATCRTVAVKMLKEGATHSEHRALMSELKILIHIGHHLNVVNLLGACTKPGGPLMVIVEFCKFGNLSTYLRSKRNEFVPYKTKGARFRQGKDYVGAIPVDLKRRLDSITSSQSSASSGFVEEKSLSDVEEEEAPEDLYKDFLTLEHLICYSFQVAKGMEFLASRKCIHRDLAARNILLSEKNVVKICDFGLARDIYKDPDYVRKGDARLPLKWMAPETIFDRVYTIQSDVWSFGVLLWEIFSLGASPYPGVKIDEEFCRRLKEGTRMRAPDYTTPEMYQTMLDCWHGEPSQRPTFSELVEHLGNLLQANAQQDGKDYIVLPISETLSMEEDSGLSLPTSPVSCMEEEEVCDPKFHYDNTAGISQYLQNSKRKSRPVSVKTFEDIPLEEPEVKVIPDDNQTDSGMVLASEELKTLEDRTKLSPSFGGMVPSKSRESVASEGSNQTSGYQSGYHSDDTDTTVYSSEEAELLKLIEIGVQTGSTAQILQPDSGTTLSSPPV
Excerpt: For example, direct radiometric, indirect FRET or AlphaScreen assays may be used to assess the level of phosphorylation of a substrate in the presence of test compounds in order to determine the inhibitory affect of the compound on the kinase. […] For these assays, compounds of the invention were screened by Invitrogen using Z′-Lyte™ kinase assay.
Briefly, the Invitrogen kinase assay involves use of a specific peptide substrate optimized for each kinase, containing a fluorophore at each end that make up the FRET pair. The peptide sensitivity to proteolytic cleavage depends on phosphorylation of the peptide. Non-phosphorylated peptide is cleaved by a protease while peptide phosphorylated by the kinase is not cleaved. Cleavage of the peptide disrupts the FRET between the donor (coumarin) and acceptor (fluorescein) fluorophores, resulting in an increase in the ratio of donor emission to acceptor emission. The emission ratio of coumarin to fluorescein is used to assess the reaction progress. […] Thus, the assay involves a kinase reaction in the presence of varying concentrations of a given compound, a development reaction with site specific protease, and detection of the fluorescent emission ratio of coumarin and fluorscein. […] Reaction conditions for each kinase are determined to provide optimal reaction times, incubation temperature, kinase and ATP concentrations. Test samples are made up in 1× kinase buffer (50 mM HEPES pH 7.5, 50 mM MgCl2, 5 mM EGTA, 0.05% BRIJ-35) and compound at desired concentration prepared in DMSO such that the final DMSO is 1%. […] All kinase except for MAP2K1 were at 10 μM ATP in the kinase reaction, while MAP2K1 was at 100 μM. Samples are mixed and the kinase reaction is incubated 1 hour at room temperature, after which 5 μl of development solution is added and mixed. After incubation for another 1 hour at room temperature, 5 μl of stop reagent is added to each sample and mixed. The fluorescence signals are measured to determine the emission ratio.

Gsk3β = Gsk3β (Homo sapiens, UniProt P49841); test: AlphaScreen kinase assay, Gsk3β; settings: read-out: IC50, activity toward kinase Gsk3β
Chain of Gsk3β (P49841 whole entry): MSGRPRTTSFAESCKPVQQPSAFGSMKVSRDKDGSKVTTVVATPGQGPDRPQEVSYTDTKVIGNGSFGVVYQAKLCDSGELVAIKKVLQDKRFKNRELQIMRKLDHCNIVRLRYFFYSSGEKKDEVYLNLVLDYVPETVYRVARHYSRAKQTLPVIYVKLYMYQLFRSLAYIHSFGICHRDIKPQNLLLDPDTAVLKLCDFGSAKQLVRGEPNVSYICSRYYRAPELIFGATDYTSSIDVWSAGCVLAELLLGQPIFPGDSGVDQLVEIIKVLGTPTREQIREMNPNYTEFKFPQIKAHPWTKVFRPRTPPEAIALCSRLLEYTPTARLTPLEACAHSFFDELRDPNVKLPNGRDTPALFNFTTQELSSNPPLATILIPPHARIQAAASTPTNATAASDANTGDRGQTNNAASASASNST
How it was run: as §1

MAP2K1 = biological target: T3, MAP2K1 (Homo sapiens, UniProt Q02750); test: Z'-Lyte FRET kinase assay (Invitrogen), MAP2K1; settings: read-out: IC50, activity toward kinase MAP2K1
T3 construct: purchased Invitrogen (assay run by Invitrogen)
T3 sequence (Q02750 whole entry): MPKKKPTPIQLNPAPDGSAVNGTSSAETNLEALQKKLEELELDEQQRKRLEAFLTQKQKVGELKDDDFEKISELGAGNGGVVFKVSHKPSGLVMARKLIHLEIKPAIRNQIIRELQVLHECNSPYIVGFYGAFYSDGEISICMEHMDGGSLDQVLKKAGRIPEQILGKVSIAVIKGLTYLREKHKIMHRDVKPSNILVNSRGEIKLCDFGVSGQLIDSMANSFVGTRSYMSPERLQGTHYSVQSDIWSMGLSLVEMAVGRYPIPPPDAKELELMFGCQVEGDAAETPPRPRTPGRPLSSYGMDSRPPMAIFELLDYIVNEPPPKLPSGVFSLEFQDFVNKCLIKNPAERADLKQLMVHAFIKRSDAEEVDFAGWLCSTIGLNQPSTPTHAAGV

Stk6 = biological target: T4, Stk6 (Homo sapiens, UniProt O14965); test: Z'-Lyte FRET kinase assay (Invitrogen), Stk6; settings: read-out: IC50, activity toward kinase Stk6
T4 construct: purchased Invitrogen (Carlsbad, Calif.), screening service
T4 sequence (O14965 1-403): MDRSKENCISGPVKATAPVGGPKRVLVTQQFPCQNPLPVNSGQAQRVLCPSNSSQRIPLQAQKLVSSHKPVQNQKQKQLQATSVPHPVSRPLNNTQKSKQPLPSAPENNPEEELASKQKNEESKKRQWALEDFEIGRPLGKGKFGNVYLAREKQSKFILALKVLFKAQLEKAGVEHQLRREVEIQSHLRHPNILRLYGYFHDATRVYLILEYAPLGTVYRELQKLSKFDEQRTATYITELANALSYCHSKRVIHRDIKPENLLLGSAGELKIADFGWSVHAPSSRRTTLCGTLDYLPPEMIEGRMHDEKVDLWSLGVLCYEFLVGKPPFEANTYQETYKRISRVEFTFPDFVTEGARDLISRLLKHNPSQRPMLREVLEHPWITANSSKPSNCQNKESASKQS

MAPKAPK2 = biological target: T5, MAPKAPK2 (Homo sapiens, UniProt P49137); test: Z'-Lyte FRET kinase assay (Invitrogen), MAPKAPK2; settings: read-out: IC50, activity toward kinase MAPKAPK2
T5 construct: purchased Invitrogen (assay run by Invitrogen)
T5 sequence (P49137 whole entry): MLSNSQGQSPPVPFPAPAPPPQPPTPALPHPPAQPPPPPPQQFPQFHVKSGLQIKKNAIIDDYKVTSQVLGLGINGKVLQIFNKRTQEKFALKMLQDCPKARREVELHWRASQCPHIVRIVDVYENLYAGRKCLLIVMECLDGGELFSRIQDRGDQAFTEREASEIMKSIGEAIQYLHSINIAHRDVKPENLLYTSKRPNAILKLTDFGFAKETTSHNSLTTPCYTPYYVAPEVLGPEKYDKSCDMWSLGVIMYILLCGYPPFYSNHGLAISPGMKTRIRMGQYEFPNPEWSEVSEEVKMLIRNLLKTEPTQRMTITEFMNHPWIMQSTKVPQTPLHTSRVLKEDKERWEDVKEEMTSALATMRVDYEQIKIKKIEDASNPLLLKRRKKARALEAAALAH
Excerpt: The effect of potential modulators of kinase activity can be measured in a variety of different assays known in the art. For example, direct radiometric, indirect FRET or AlphaScreen assays may be used to assess the level of phosphorylation of a substrate in the presence of test compounds in order to determine the inhibitory affect of the compound on the kinase. Invitrogen (Carlsbad, Calif.) uses a FRET based assay for Btk, EGFR, EphB2, Flt3, lrak4, Kdr, MAP2K1, MAPKAPK2, PDGFRB, PKC theta, Stk6 and Yes. For these assays, compounds of the invention were screened by Invitrogen using Z′-Lyte™ kinase assay.
Briefly, the Invitrogen kinase assay involves use of a specific peptide substrate optimized for each kinase, containing a fluorophore at each end that make up the FRET pair. The peptide sensitivity to proteolytic cleavage depends on phosphorylation of the peptide. Non-phosphorylated peptide is cleaved by a protease while peptide phosphorylated by the kinase is not cleaved. Cleavage of the peptide disrupts the FRET between the donor (coumarin) and acceptor (fluorescein) fluorophores, resulting in an increase in the ratio of donor emission to acceptor emission. The emission ratio of coumarin to fluorescein is used to assess the reaction progress. The extent of phosphorylation is determined from the emission ratio, which is low when the kinase is active (phosphorylated peptide is not cleaved, FRET pair connected) or higher for inhibited kinase (non-phosphorylated peptide is cleaved, FRET pair separated). Thus, the assay involves a kinase reaction in the presence of varying concentrations of a given compound, a development reaction with site specific protease, and detection of the fluorescent emission ratio of coumarin and fluorscein. […] Reaction conditions for each kinase are determined to provide optimal reaction times, incubation temperature, kinase and ATP concentrations. Test samples are made up in 1× kinase buffer (50 mM HEPES pH 7.5, 50 mM MgCl2, 5 mM EGTA, 0.05% BRIJ-35) and compound at desired concentration prepared in DMSO such that the final DMSO is 1%. […] Typically, assay plates are prepared to 10 μl final volume per sample, adding 2.5 μl of compound at 4× the desired concentration in 4% DMSO (serial dilution of compound provides concentration curve), 5 μl of the desired kinase mixed with Z′-LYTE™ peptide substrate (2× in 2× kinase buffer, final peptide at 2 μM), and 2.5 μl of 4×ATP solution. All kinase except for MAP2K1 were at 10 μM ATP in the kinase reaction, while MAP2K1 was at 100 μM. Samples are mixed and the kinase reaction is incubated 1 hour at room temperature, after which 5 μl of development solution is added and mixed. After incubation for another 1 hour at room temperature, 5 μl of stop reagent is added to each sample and mixed. The fluorescence signals are measured to determine the emission ratio.

Syk = Syk (Homo sapiens, UniProt P43405); test: AlphaScreen kinase assay, Syk; settings: read-out: IC50, activity toward kinase Syk
Excerpt: as §2, §3

PKC theta = biological target: T6, PKC theta (Homo sapiens, UniProt Q04759); test: Z'-Lyte FRET kinase assay (Invitrogen), PKC theta; settings: read-out: IC50, activity toward kinase PKC theta
T6 construct: purchased Invitrogen (Carlsbad, Calif.), screening service
T6 sequence (Q04759 whole entry): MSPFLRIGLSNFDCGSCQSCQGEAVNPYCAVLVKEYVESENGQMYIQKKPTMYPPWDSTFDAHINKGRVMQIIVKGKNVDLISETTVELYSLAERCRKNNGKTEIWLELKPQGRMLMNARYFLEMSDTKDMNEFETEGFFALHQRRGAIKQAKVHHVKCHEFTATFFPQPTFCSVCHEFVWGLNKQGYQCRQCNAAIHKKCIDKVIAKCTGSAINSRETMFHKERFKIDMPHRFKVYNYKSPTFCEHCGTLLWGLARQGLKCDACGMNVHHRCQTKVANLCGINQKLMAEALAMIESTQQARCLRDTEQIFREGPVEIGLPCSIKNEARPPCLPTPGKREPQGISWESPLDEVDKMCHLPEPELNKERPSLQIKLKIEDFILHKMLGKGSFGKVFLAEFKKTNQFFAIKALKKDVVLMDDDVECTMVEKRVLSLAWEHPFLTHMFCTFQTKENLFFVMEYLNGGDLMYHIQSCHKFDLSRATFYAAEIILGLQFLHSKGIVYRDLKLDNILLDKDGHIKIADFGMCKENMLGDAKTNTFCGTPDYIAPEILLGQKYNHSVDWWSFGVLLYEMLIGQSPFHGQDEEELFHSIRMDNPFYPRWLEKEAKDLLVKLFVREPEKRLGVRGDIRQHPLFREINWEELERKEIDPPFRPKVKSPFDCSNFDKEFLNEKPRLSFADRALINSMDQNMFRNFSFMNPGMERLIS
How it was run: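 10 μM ATP, 2 μM peptide, 1% DMSO final; HEPES pH 7.5 buffer with MgCl2/EGTA/BRIJ-35. Kinase rxn 1 h RT, protease development 1 h RT, stop, read donor/acceptor ratio. Compound titrated.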

Measured: IC50

Chain of Akt3 (Q9Y243 whole entry): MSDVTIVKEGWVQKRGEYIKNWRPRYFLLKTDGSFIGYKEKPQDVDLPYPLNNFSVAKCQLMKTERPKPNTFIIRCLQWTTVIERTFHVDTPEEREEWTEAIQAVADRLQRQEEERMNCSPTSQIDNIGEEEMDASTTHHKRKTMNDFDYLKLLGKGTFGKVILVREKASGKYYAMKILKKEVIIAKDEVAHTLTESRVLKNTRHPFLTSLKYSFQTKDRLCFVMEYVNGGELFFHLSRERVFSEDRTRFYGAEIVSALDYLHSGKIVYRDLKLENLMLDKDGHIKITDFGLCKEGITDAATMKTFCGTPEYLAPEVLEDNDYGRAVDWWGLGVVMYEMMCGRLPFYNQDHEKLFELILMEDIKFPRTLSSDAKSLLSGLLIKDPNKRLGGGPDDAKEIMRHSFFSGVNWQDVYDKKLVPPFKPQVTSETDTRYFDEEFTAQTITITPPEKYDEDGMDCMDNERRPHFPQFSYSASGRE

OCc1cccc(-c2ccnc3[nH]cc(Sc4ccccn4)c23)c1 [Compound P-0057]
≤ 10 µM: all assays above
